Row | solubility (mole fraction) (in n-octanol, 293.15 K) | solubility (mole fraction) (in n-octanol, 298.15 K) | solubility (mole fraction) (in n-octanol, 303.15 K) | solubility (mole fraction) (in n-octanol, 310.15 K) | solubility (mole fraction) (in n-octanol, 315.15 K) | solubility (mole fraction) (in water, 293.15 K) | solubility (mole fraction) (in water, 298.15 K) | solubility (mole fraction) (in water, 303.15 K) | solubility (mole fraction) (in water, 310.15 K) | solubility (mole fraction) (in water, 315.15 K) | SMILES
1 | 0.00958 | 0.0116 | 0.0139 | 0.018 | 0.0222 | 1.45e-06 | 1.85e-06 | 2.32e-06 | 3.19e-06 | 3.71e-06 | O=[N+]([O-])c1ccc(NS(=O)(=O)c2ccccc2)cc1
2 | 0.00112 | 0.00129 | 0.00158 | 0.00197 | 0.00234 | 4.11e-06 | 5.47e-06 | 7.58e-06 | 1.16e-05 | 1.45e-05 | N#Cc1ccc(NS(=O)(=O)c2ccc(N)cc2)cc1
3 | 0.0026 | 0.003 | 0.00361 | 0.00465 | 0.00562 | 2.72e-06 | 3.64e-06 | 4.88e-06 | 7.63e-06 | 8.29e-06 | Nc1ccc(S(=O)(=O)Nc2ccc([N+](=O)[O-])cc2)cc1

Source: BigSolDB 2.1
